Literature values as cited in patent US5969096A (priority 1998, dated 1999).

Molecular target: neuronal voltage-sensitive Ca2+ channels

ω-conotoxin GVIA
affinity (Kd) for high-affinity targets: sub-picomolar | time for 50% of the peptide to dissociate: more than 7 hours
